Source: PubChem BioAssay AID179 (DTP/NCI, 2004)
Several values for one entry are separate records, joined by “and”; a condition that tells them apart may be missing. Equal entries are not always repeated. Activity calls are given as the source filed them.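 How the source made its calls: active means compounds giving half or more protection of infected cells from virus-caused growth loss, again on retest; inactive means the rest.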 Where a SMILES comes first, the peptide text is derived from it. [ ]: non-standard residue; d: D form. The star is where a group is joined. ξ: configuration not given here. ξF = NC(Cc1ccccc1)C(=O)O; Cbz = O=C(OCc1ccccc1)*; Aib = CC(C)(N)C(=O)O; NHNH2 = NN*

Test system: CEM cells HIV-1 protection, formazan growth assay
Assay: NCI AIDS Antiviral Assay
Conditions: for IC50: measured here: growth of uninfected CEM cells
How it was run: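 Human CEM cells, uninfected and HIV-1-infected, exposed to five drug concentrations; growth measured by soluble formazan assay and scored as percent protection from infection, with protecting compounds retested.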

C[C@]12C(=O)OC[C@H](c3ccccc3)N1C(=O)N(Cc1ccccc1)[C@@H]2CO
EC50: > 200 µM
IC50: > 200 µM

CCSc1nc(N)c2c(-c3ccccc3)c3c(nc2n1)CCC3
EC50: > 100 µM
IC50: > 100 µM

COC(=O)CN(CC(=O)OC)S(=O)(=O)c1ccc(-c2c3nc(c(-c4ccc(S(=O)(=O)N(CC(=O)OC)CC(=O)OC)cc4)c4ccc([nH]4)c(-c4ccc(S(=O)(=O)N(CC(=O)OC)CC(=O)OC)cc4)c4nc(c(-c5ccc(S(=O)(=O)N(CC(=O)OC)CC(=O)OC)cc5)c5ccc2[nH]5)C=C4)C=C3)cc1
EC50: > 100 µM
IC50: > 100 µM

CCOC(=O)C(Br)=C1OC(=O)c2ccccc2-c2ccccc21 (mixture of isomers)
EC50: > 36.3 µM
IC50: > 36.3 µM

COC(=O)c1c(-c2ccccc2)cc2c3cc(-c4ccccc4)c(C(=O)OC)n3c3ccccc3n12
EC50: > 28.8 µM
IC50: > 28.8 µM

COc1ccc(/C(=N/Nc2nc3ccccc3n2Cc2ccccc2)C(=O)O)cc1
EC50: > 200 µM
IC50: 4.27 µM

CCOC(=O)c1c(-c2cc(OC)c(OC)c(OC)c2)csc1N
EC50: > 200 µM
IC50: 12 µM

CCOC(=O)c1cc2c3c(c1)C(=O)C(C)CN3CC(C)C2=O (configuration not stated)
outcome: inactive

CC1(C)COC(c2cccc(C3=NC(C)(C)CO3)c2Br)=N1
EC50: > 200 µM
IC50: 151 µM

Brc1ccc(SSc2ccc(Br)cc2)cc1
EC50: > 200 µM
IC50: 9.12 µM and 3.39 µM

COc1ccc(/C(C)=N/NC(=O)c2ccncc2)cc1OC
EC50: > 437 µM
IC50: > 437 µM

CCCc1cc(=O)oc2c3c(cc(OC(C)C)c12)O[C@H](C)[C@H](C)[C@@H]3O
EC50: > 200 µM
IC50: 49 µM

N#CCN(CC#N)C1CC=CCC1N(CC#N)CC#N (configuration not stated)
EC50: > 200 µM
IC50: 102 µM

CC(C)(NC(=O)OCc1ccccc1)C(=O)NC(Cc1ccccc1)C(=O)NN (configuration not stated) (Cbz-[Aib]-[ξF]-NHNH2)
EC50: > 200 µM
IC50: > 200 µM

C1CN2CN1CN1CCN(C1)C2
EC50: > 200 µM
IC50: 22.9 µM

CC(=O)Nc1cc2cc(N=CN(C)C)ccc2oc1=O
EC50: > 263 µM
IC50: 148 µM

CC(CN1CC(=O)NC(=O)C1)N1CC(=O)NC(=O)C1 (configuration not stated)
EC50: > 468 µM
IC50: 40.7 µM

CCCCCC=C(c1cc(Cl)c(OC)c(C(N)=O)c1)c1cc(Cl)c(OC)c(C(N)=O)c1
EC50: 1.82 µM
IC50: 15.8 µM

N=c1c2c3n(c4c(=O)n(-c5ccccc5)c(=S)n(c(=O)n1-c1ccccc1)c24)CCCCC3
EC50: > 100 µM
IC50: > 100 µM

c1ccc(-c2nc3sccn3n2)cc1
outcome: inactive

Cc1cc(=O)[nH]c2cc(N(C)C)ccc12
EC50: > 67.6 µM
IC50: > 67.6 µM

CCN(CC)CCNc1ccc(Cl)cc1N
EC50: > 200 µM
IC50: 39.8 µM

N#Cc1c(CC(=O)O)cc(=O)n2c1[nH]c1ccccc12
EC50: > 933 µM
IC50: 316 µM

COC(=O)c1oc(-c2ccccc2)c(-c2ccccc2)c1C(=O)OC
EC50: > 200 µM
IC50: 74.1 µM

CC(=O)NC(CCCNC(=O)OCc1ccccc1)C(=O)NCc1ccccc1 (configuration not stated)
EC50: > 170 µM
IC50: > 170 µM

C/C(=N\NC(N)=O)C(CN1CCOCC1)C(c1ccccc1)c1c(O)c2ccccc2oc1=O (configuration not stated)
EC50: > 81.3 µM
IC50: 67.6 µM

CN(C(=O)c1ccco1)C(=S)N1CCN(c2ccccc2)CC1
EC50: > 110 µM
IC50: 30.2 µM

NCC1CCC(C(=O)O)CC1 (configuration not stated)
EC50: > 200 µM
IC50: > 200 µM

COc1ccc(C(C)(O)c2cc3ccccc3n2S(=O)(=O)c2ccccc2)cc1 (configuration not stated)
EC50: > 200 µM
IC50: 16.2 µM

Nc1cc(N)c(N=Nc2ccc(/C=C/c3ccc(N=Nc4c(N)cc(N)cc4C(=O)O)cc3S(=O)(=O)O)c(S(=O)(=O)O)c2)c(C(=O)O)c1
EC50: > 178 µM
IC50: 170 µM

Cc1cn(C2CC(ONC(N)=O)C(CO[Si](C)(C)C(C)(C)C)O2)c(=O)[nH]c1=O (configuration not stated)
EC50: > 200 µM
IC50: 105 µM

O=C(O)/C=C/c1c2ccc(=O)cc-2oc2cc(O)ccc12
EC50: > 200 µM
IC50: 28.8 µM

CO[C@@H]1C2OC(C)(C)OC2O[C@@H]1C1OC[C@H]2O[C@@H](n3ccc(=O)[nH]c3=O)C(O)[C@H]2N1O (some centres not stated)
EC50: > 200 µM
IC50: 148 µM

O=C1NCN(C2CCCCC2)CN1
EC50: > 200 µM
IC50: > 200 µM

COc1ccc(C(O)/C(=N/N)c2nc3ccc(Cl)cc3[nH]c2=O)cc1 (configuration not stated)
EC50: > 263 µM
IC50: 251 µM

NC(=O)c1ccccc1NC(=O)C(=O)C(C(=O)c1ccc2ccccc2c1)C1OC(=O)c2ccccc21 (configuration not stated)
EC50: > 52.5 µM
IC50: 15.8 µM

CCOC(=O)CNC(=O)C(Cc1ccccc1)NC(=O)C(C)(C)NC(=O)OCc1ccccc1 (configuration not stated) (Cbz-[Aib]-[ξF]-Gly-OEt)
EC50: > 200 µM
IC50: 95.5 µM

O=C(O)c1cnc2c(ccc3[nH]cccc32)c1=O
EC50: > 75.9 µM
IC50: > 75.9 µM

COC(=O)C(C)(C)C(OP(=S)(OC)OC)=C(C)C
EC50: > 200 µM
IC50: > 200 µM

NC(=O)c1cccc(N=O)c1
EC50: > 200 µM
IC50: 12.9 µM

Cc1cccc(C)c1NC(=O)CCc1n[nH]c(=S)o1
EC50: > 468 µM
IC50: > 468 µM

Cc1ccc(Nc2nc(C)c(C(=O)CC(=O)C(=O)Nc3ccc(Cl)cc3)s2)cc1
EC50: > 200 µM
IC50: > 200 µM
